This is an account of results in ChEMBL document CHEMBL1201862, “PubChem BioAssay data set” (2004).

Some test systems named below: SF-539; OVCAR-8; UACC-257; TK-10; MOLT-4; MCF7; HCC 2998; SF-268; OVCAR-3; A498; U-251; SW-620; DU-145; SR; OVCAR-4; HCT-15; SK-OV-3; CCRF-CEM; SK-MEL-28; HL-60.
Test in all cases: NCI-60 cell line screen, 48 h

Structures are written as SMILES.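 96-well plates; 48 h exposure; 5 concentrations. Endpoints by linear interpolation between flanking doses. Not reached: highest tested concentration assigned. GI50: concentration for 50% inhibition of growth.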 The source made the active and inactive calls. Rule as the data show it: active = GI50 up to about 1.1 µM and inactive = higher.

For the molecule `CC(=O)O[C@H]1CC[C@@]2(C)C(=CC[C@@H]3[C@@H]2CC[C@]2(C)C(=O)/C(=C\c4ccccc4)C[C@@H]32)C1`, the GI50 with SF-539 is > 100 µM (inactive); in the experiment on OVCAR-8, > 100 µM (inactive); in the experiment with UACC-257, > 100 µM (inactive); with TK-10 it was > 100 µM (inactive); in the experiment on MOLT-4, 37.8 µM (inactive); with MCF7 it was > 100 µM (inactive). Further, the GI50 was > 100 µM (inactive) with HCC 2998; > 100 µM (inactive) in the experiment with SF-268; 61.9 µM (inactive) in the experiment on OVCAR-3; > 100 µM (inactive) in the experiment with A498; > 100 µM (inactive) with U-251; > 100 µM (inactive) in the experiment with SW-620. Also, the GI50 was > 100 µM (inactive) in the experiment on DU-145; > 100 µM (inactive) in the experiment with SR; > 100 µM (inactive) with OVCAR-4; above 100 µM in the experiment with HCT-15; > 100 µM (inactive) in the experiment on SK-OV-3; > 100 µM (inactive) in the experiment on CCRF-CEM. The GI50 in the experiment with SK-MEL-28 is > 100 µM (inactive).

For the molecule `COc1cccc2c1C(=O)c1c(O)c3c(c(O)c1C2=O)C[C@@](O)(C(C)=O)C[C@@H]3OC1CC(O)C(O)C(C)O1` (stereo partly drawn), the GI50 was 0.9 µM (active) in the experiment with SF-539; 0.0501 µM (active) in the experiment with HL-60; 1.3 µM (inactive) in the experiment on OVCAR-8; 3.79 µM (inactive) in the experiment with UACC-257; 5.74 µM (inactive) in the experiment on TK-10; 0.0208 µM (active) in the experiment on MOLT-4. The GI50 with HCC 2998 was 0.918 µM (active); with SF-268, 1.08 µM (active); with OVCAR-3, 3.69 µM (inactive); in the experiment with A498, 3.05 µM (inactive); in the experiment with U-251, 0.359 µM (active); in the experiment on SW-620, 0.536 µM (active). Moreover, the GI50 in the experiment with DU-145 is 1.62 µM (inactive); with SR, 0.00935 µM (active); in the experiment with OVCAR-4 it was 3.81 µM (inactive); in the experiment on HCT-15 it was 1.43 µM; in the experiment on SK-OV-3 it was 4.51 µM (inactive); in the experiment with CCRF-CEM, 0.0902 µM (active). The GI50 with SK-MEL-28 is 6.08 µM (inactive).

For `NCc1ccc(O)c(O)c1`, the GI50 in the experiment on SF-539 was > 100 µM (inactive); in the experiment on HL-60, 12.5 µM (inactive); in the experiment with OVCAR-8, > 100 µM (inactive); in the experiment on UACC-257 it was > 100 µM (inactive); with MOLT-4 it was 27.1 µM (inactive); in the experiment on MCF7, > 100 µM (inactive). Further, the GI50 was > 100 µM (inactive) with HCC 2998; 55.8 µM (inactive) with OVCAR-3; > 100 µM (inactive) in the experiment on A498; > 100 µM (inactive) with U-251; > 100 µM (inactive) in the experiment on SW-620; > 100 µM (inactive) in the experiment on DU-145. Moreover, the GI50 in the experiment with SR was 38.5 µM (inactive); with OVCAR-4, > 100 µM (inactive); in the experiment with HCT-15, above 100 µM; in the experiment with SK-OV-3, > 100 µM (inactive); in the experiment on CCRF-CEM, 53 µM (inactive); with SK-MEL-28, > 100 µM (inactive).

Turning to `C=C[C@@H]1C(CO)=CCC2[C@H]1CCC1C(C)(C)C(=O)CC[C@]21C` (stereo partly drawn), the GI50 in the experiment on SF-539 was > 100 µM (inactive); with HL-60, 59.3 µM (inactive); in the experiment with UACC-257, > 100 µM (inactive); with TK-10, > 100 µM (inactive); with MOLT-4, > 100 µM (inactive); in the experiment on MCF7 it was > 100 µM (inactive). In addition, the GI50 with HCC 2998, in the experiment with SF-268, with OVCAR-3, in the experiment on A498, in the experiment with U-251 and in the experiment on SW-620 was > 100 µM (inactive) each time. Further, the GI50 in the experiment on DU-145 is > 100 µM (inactive); with SR it was > 100 µM (inactive); in the experiment with OVCAR-4, > 100 µM (inactive); in the experiment with HCT-15 it was above 100 µM; in the experiment on SK-OV-3 it was > 100 µM (inactive); with CCRF-CEM, > 100 µM (inactive). The GI50 in the experiment on SK-MEL-28 was > 100 µM (inactive).

For `O=C(c1ccccc1)C1C(c2ccccc2)N1S(=O)(=O)c1ccccc1` (stereo not drawn), the GI50 in the experiment on SF-539, with OVCAR-8, with TK-10, with MOLT-4, with MCF7 and in the experiment on HCC 2998 was > 100 µM (inactive) throughout. The GI50 in the experiment with SF-268, in the experiment on OVCAR-3, in the experiment with U-251, in the experiment with SW-620, in the experiment on DU-145 and in the experiment with OVCAR-4 was > 100 µM (inactive) throughout. Moreover, the GI50 with HCT-15 was above 100 µM; in the experiment on SK-OV-3, > 100 µM (inactive); with CCRF-CEM, > 100 µM (inactive); with SK-MEL-28 it was > 100 µM (inactive).

For `Brc1ccccc1-c1ncc(-c2ccccc2)o1`, the GI50 with SF-539 is 9.91 µM (inactive); in the experiment on HL-60, 30.5 µM (inactive); in the experiment with OVCAR-8, 37.1 µM (inactive); with UACC-257, 30.3 µM (inactive); in the experiment with TK-10, 47.2 µM (inactive); in the experiment with MOLT-4, 14.2 µM (inactive). The GI50 is 3.47 µM (inactive) with MCF7; 30 µM (inactive) in the experiment on HCC 2998; 27.9 µM (inactive) with SF-268; 22 µM (inactive) in the experiment on OVCAR-3; 23 µM (inactive) with A498; 17 µM (inactive) with U-251. Besides, the GI50 is 35.6 µM (inactive) in the experiment with SW-620; 32.1 µM (inactive) in the experiment on DU-145; 29.4 µM (inactive) in the experiment with OVCAR-4; 7.36 µM in the experiment with HCT-15; 31.1 µM (inactive) in the experiment with SK-OV-3; 24.9 µM (inactive) with CCRF-CEM. The GI50 in the experiment on SK-MEL-28 was 40.6 µM (inactive).

For the molecule `Nc1nnc2ccc(Cl)cc2[n+]1[O-]`, the GI50 is 29.3 µM (inactive) with HL-60; 24.9 µM (inactive) in the experiment with OVCAR-8; 94 µM (inactive) with UACC-257; > 100 µM (inactive) in the experiment on TK-10; 35.1 µM (inactive) with MOLT-4; 70.1 µM (inactive) with MCF7. In addition, the GI50 in the experiment with HCC 2998 was 40.8 µM (inactive); in the experiment on SF-268, 38 µM (inactive); in the experiment on A498, 68.5 µM (inactive); in the experiment with U-251, > 100 µM (inactive); in the experiment on SW-620, 36.5 µM (inactive); with DU-145, > 100 µM (inactive). Moreover, the GI50 is 46.3 µM (inactive) with SR; 36.2 µM in the experiment on HCT-15; 28.6 µM (inactive) in the experiment with SK-OV-3; 29.6 µM (inactive) in the experiment with CCRF-CEM; 62.5 µM (inactive) in the experiment with SK-MEL-28.

As for `Cc1ccc(NC(=O)S(N)(c2ccc(C)cc2)[N+](=O)[O-])cc1` (stereo not drawn), the GI50 in the experiment with HL-60 was 10 µM (inactive); with OVCAR-8, > 100 µM (inactive); with UACC-257 it was > 100 µM (inactive); with TK-10 it was > 100 µM (inactive); in the experiment on MOLT-4, 84.7 µM (inactive); in the experiment on MCF7 it was > 100 µM (inactive). Also, the GI50 is > 100 µM (inactive) in the experiment with HCC 2998; > 100 µM (inactive) with OVCAR-3; > 100 µM (inactive) in the experiment with A498; > 100 µM (inactive) with U-251; > 100 µM (inactive) with SW-620; 89.7 µM (inactive) in the experiment with DU-145. The GI50 in the experiment with SR is > 100 µM (inactive); in the experiment with OVCAR-4 it was > 100 µM (inactive); in the experiment with HCT-15, above 100 µM; in the experiment on SK-OV-3, > 100 µM (inactive); in the experiment with CCRF-CEM, > 100 µM (inactive); in the experiment with SK-MEL-28, > 100 µM (inactive).

Turning to `Cn1c2n/c(=N\c3ccc(Cl)cc3)[n+]3ccc4ccccc4c3c-2c([O-])n1-c1ccccc1`, the GI50 with HL-60, with OVCAR-8, in the experiment on UACC-257, with TK-10, in the experiment on MOLT-4 and in the experiment on MCF7 was > 100 µM (inactive) in each case. In addition, the GI50 with HCC 2998, in the experiment with SF-268, with OVCAR-3, in the experiment on A498, in the experiment with U-251 and with SW-620 was > 100 µM (inactive) each time. For the same molecule, the GI50 was > 100 µM (inactive) with DU-145; > 100 µM (inactive) in the experiment on SR; > 100 µM (inactive) in the experiment on OVCAR-4; above 100 µM with HCT-15; > 100 µM (inactive) in the experiment on SK-MEL-28.

On to `Cc1oc2c(c1C)S(=O)(=O)C(C#N)=CN2`, for which the GI50 with SF-539, in the experiment with OVCAR-8, in the experiment on UACC-257, in the experiment on TK-10, in the experiment with MOLT-4 and in the experiment with MCF7 was > 100 µM (inactive) each time. Also, the GI50 in the experiment on HCC 2998, in the experiment on SF-268, in the experiment with OVCAR-3, with A498, in the experiment on U-251 and in the experiment with SW-620 was > 100 µM (inactive) each time. In addition, the GI50 is > 100 µM (inactive) in the experiment on DU-145; > 100 µM (inactive) in the experiment with SR; > 100 µM (inactive) in the experiment on OVCAR-4; above 100 µM in the experiment on HCT-15; > 100 µM (inactive) in the experiment on SK-OV-3; > 100 µM (inactive) in the experiment on SK-MEL-28.

As for `O=c1c(-c2ccccc2)c(SCCN2CCCCCC2)n(-c2ccccc2)c(=S)n1-c1ccccc1`, the GI50 is > 100 µM (inactive) in the experiment on SF-539; 11 µM (inactive) in the experiment on HL-60; 80 µM (inactive) in the experiment on OVCAR-8; 86.3 µM (inactive) in the experiment on UACC-257; 48.4 µM (inactive) in the experiment on TK-10; 13.4 µM (inactive) in the experiment on MOLT-4. The GI50 in the experiment on MCF7 was 24.9 µM (inactive); with HCC 2998, 3.52 µM (inactive); with OVCAR-3, 32.7 µM (inactive); in the experiment with A498, 19.7 µM (inactive); in the experiment with SW-620, 37.2 µM (inactive); in the experiment on DU-145 it was 23.6 µM (inactive). In addition, the GI50 with SR was 21.8 µM (inactive); in the experiment on OVCAR-4, 15.5 µM (inactive); with HCT-15, 51.3 µM; in the experiment on SK-OV-3, > 100 µM (inactive); in the experiment on CCRF-CEM it was 8.45 µM (inactive); in the experiment on SK-MEL-28 it was > 100 µM (inactive).
